Test results taken from article PMC5834492, “Antimycobacterial drug discovery using Mycobacteria-infected amoebae identifies anti-infectives and new molecular targets” (Scientific Reports, 2018).
Like-named read-outs stand apart in the source and are kept apart here.

Experiments:
M. marinum luxCDABE = format: cell-based, Mycobacterium marinum; conditions: 10 µM
D. discoideum GFP-ABD = conditions: 10 µM
M. marinum GFP = format: cell-based, Mycobacterium marinum; conditions: 10 µM; antibiotic assay
Mtb H37Rv = test system: Mtb H37Rv; parameters: method as in Sorrentino et al, 2015; conditions: ref Sorrentino et al, 2015; cited from earlier work
[1] = test system: M. marinum in A. castellanii; format: cell-based, Mycobacterium marinum; conditions: 10 µM
Mtb H37Rv in THP-1 = test system: Mtb H37Rv in THP-1; parameters: method as in Sorrentino et al, 2015; conditions: ref Sorrentino et al, 2015, cited from earlier work; for Extracellular MIC90/ Inracellular MIC90: ratio
[2] = test system: M. marinum in BV2 microglial cells; format: cell-based, Mycobacterium marinum
[3] = THP1 / Mtb H37Rv infection assay

SMILES | M. marinum luxCDABE normalised growth, control=1.00, mean (M. marinum luxCDABE) | D. discoideum GFP-ABD normalised growth, control=1.00, mean (D. discoideum GFP-ABD) | M. marinum GFP normalised growth, control=1.00, mean (M. marinum GFP) | Extracellular MIC90 (Mtb H37Rv) | A. castellanii / M. marinum normalised growth, control=1.00, mean [1] | Intracelullar MIC90 in THP-1 (Mtb H37Rv in THP-1; [3]) | Extracellular MIC90/ Inracellular MIC90 (Mtb H37Rv in THP-1) | IC50 [2] | BV2 / M. marinum normalised growth, control=1.00, mean ([2]; 10 µM) | M. marinum luxCDABE normalised growth, control = 1.00, mean (M. marinum luxCDABE) | Hits A. castellanii/M. marinum assay True/False [1] | anti-infective properties in A. castellanii infection assay [1] | Intracelullar MIC90 in THP-1 (Mtb H37Rv in THP-1; Mtb H37Rv-infected THP1 cells) | anti-infective properties in microglial cell (BV2) infection assay ([2]; 10 µM) | hit in BV2/M. marinum assay True/False ([2]; 10 µM)
O=C(NNC(=O)c1ccc([N+](=O)[O-])o1)c1ccc2ccccc2c1 [GSK347301A] | 0.19 | 0.49 | 1.03 | 8.3 µM | 0.90 | 16.65 µM | 0.5 | 6.58 µM | 0.97 | – | – | – | – | – | –
FC(F)(F)c1nnc2ccc(Cl)nn12 [GSK352635A] | 0.60 | 1.17 | 0.81 | 9.1 µM | 1.02 | 50 µM | 0.18 | 7.58 µM | 0.89 | – | – | – | – | – | –
CNc1nc(SC)nc2ccccc12 [GSK353069A] | 0.00 | 0.99 | 0.0149 | 0.2 µM | 0.47 | 0.07 µM | 2.86 | 1.31 µM | 0.42 | 0,00 | TRUE | strong anti-infective properties | 0.07 µM | strong anti-infective properties | TRUE
C=CCNc1nc(SC)nc2ccccc12 [GSK353071A] | 0.095 | 0.92 | 0.09 | 3.2 µM | 0.77 | 1.85 µM | 1.73 | 4.77 µM | 0.53 | – | – | – | – | – | –
N=C(Nc1nc(-c2ccccn2)cc2ccccc12)c1cccc(Cl)c1 [GSK381407A] | 0.00 | 0.98 | 7.92e-5 | 4.5 µM | 1.06 | 0.61 µM | 7.38 | 7.71 µM | 0.65 | – | – | – | – | – | –
Cc1nc2ccccn2c1C(=O)NCc1ccc2c(c1)OCO2 [GSK498315A] | 0.00 | 0.81 | 0.0644 | 2.9 µM | 0.56 | 1.85 µM | 1.57 | 5.95 µM | 0.47 | 0,00 | FALSE | – | 1.85 µM | – | TRUE
COc1cc2ccccc2cc1C(=O)NCc1cccc(-c2ccccc2OC)c1 [GSK695914A] | 0.00 | 0.98 | 0.0549 | 2.2 µM | 0.63 | 5.55 µM | 0.4 | 7.82 µM | 0.48 | 0,00 | FALSE | – | 5.55 µM | – | TRUE
COc1ccc2nc(C)cc(OCC(=O)Nc3cc(C)cc(C)c3)c2c1 [GSK749336A] | 0.00 | 0.67 | 0.14 | 0.3 µM | 0.58 | 5.55 µM | 0.05 | 7.32 µM | 0.63 | – | – | – | – | – | –
COc1ccc(CCNC(=O)c2c(C)nc3ccccn23)cc1 [GSK762874A] | 0.00 | 1.04 | 0.08 | 3.1 µM | 0.70 | 5.55 µM | 0.56 | 3.64 µM | 0.59 | – | – | – | – | – | –
Cc1cccc(Cn2ccc(NC(=O)c3ccc4c(c3)OCO4)n2)c1 [GSK798463A] | 0.00 | 0.66 | 0.0323 | 3.7 µM | 0.57 | 5.55 µM | 0.67 | 5.01 µM | 0.80 | – | – | – | – | – | –
c1csc(Cc2nn3c(-c4[nH]nc5c4CCC5)nnc3s2)c1 [GSK810037A] | 0.11 | 0.76 | 0.73 | 2.4 µM | 1.03 | 1.85 µM | 1.3 | 4.8 µM | 0.81 | – | – | – | – | – | –
